Assay results: patent US11180518B2, “Phenyl-heterocycle-phenyl derivatives for use in the treatment or prevention of melanoma” (MAX-PLANCK-GESELLSCHAFT ZUR FÖRDERUNG DER WISSENSCHAFTEN …, priority 2017, dated 2021)

What was measured:
[1] = test system: α-synuclein-expressing WM983-B human metastatic melanoma cells; experiment: Test screening of DPP compounds in human metastatic melanoma cells (cell death read-out); assay type: cell-based; conditions: WM983B, second 10 μM dose at 48 hr, serum-free culture medium, read at 48 h / 96 h
Description: To determine the impact of the DPP compounds on high-level α-synuclein-expressing human melanoma cells, WM983-B melanoma cells were plated, in duplicate, in 12-well tissue culture plates in cell culture medium containing 10% fetal bovine serum. Twenty-four hours later, the cells were rinsed three-times with serum-free medium, followed by addition of serum-free medium containing each DPP compound at a dose of 10 μM. Following incubation of the DPP compound-treated cells at 37° C. for 48 hr, each DPP compound was added to the cells at a second 10 μM dose. Using light microscopy, changes in the cells' morphology>detachment of the cells from the cell culture dish/floating in the cell culture medium>cell death were recorded on a scale of 0, +, ++, +++, ++++ at the 24 hr, 48 hr, 72 hr and 96 hr time-point following addition of DPP compound.
The DPP compounds were added to α-synuclein-expressing WM983-B human metastatic melanoma cells.

[2] = test system: WM983-A, WM983-B, and SK-MEL-5 melanoma cell lines; experiment: Apoptosis markers in treated melanoma cells; assay type: cell-based, human
From the text: Although the morphological changes in the WM983-A, WM983-B, and SK-MEL-5 melanoma cell lines following addition of anle138b occurred quite rapidly, they were not indicative of the cells undergoing apoptosis. […] Differential interference contrast (DIC) images of the morphology of the anle138b-treated WM983-B, SK-MEL-5, and WM1158 melanoma cells from the same panels are shown in FIG. 9.

Binding to FBS = assay type: in vitro ADME
[3] = test system: high-level α-synuclein expressing cell lines WM983-B; experiment: Initial screen of sixteen compounds from the DPP library; assay type: cell-based, human
WM1158 melanoma cells [4] = experiment: Melanoma cell proliferation analysis; assay type: cell-based, human; conditions: over 96 hr, replenishment at 48 hr
From the text: (§1) To assess the possible impact of anle138b as well as anle138c on the different melanoma cell lines, WM983-A, WM983-B and SK-MEL-5, we treated them with increasing doses of either compound, dissolved in dimethyl sulfoxide (DMSO), and added to serum-free culture medium. […] We also observed that treatment with anle138b caused a more rapid morphological change than anle138c. To determine whether the effect of the two anle compounds was related to the amount of α-synuclein produced by the cells, we compared the proliferation of the (VGP) WM983-A high-level and the (RGP/VGP) WM1158 low-level α-synuclein-producing melanoma cells over a period of 96 hr, with replenishment of each anle compound at 48 hr (FIGS. 8A and B).
(§2) 10 or 30 mM stock solutions of anle138b or anle138c were made in DMSO. Since anle138b as well as anle138c bind strongly to FBS, melanoma cells, plated for 24 hr in tissue-culture medium containing 10% FBS, were rinsed three times with serum-free medium prior to addition of anle138b, anle138c, or an equivalent volume of DMSO only in serum-free medium. Forty-eight hours later, the cell culture medium was removed, followed by addition of an equivalent dose of anle138b or anle138c, or DMSO only in serum-free culture medium. […] Proliferation of melanoma cells that had received DMSO only, or were treated with anle138b was determined by counting the cells with a hemocytometer.

α-synuclein monomers = α-synuclein monomers (Homo sapiens, UniProt P37840); conditions: cited from earlier work
WM983-B melanoma cells [5] = experiment: Autophagy: LC3 immunofluorescence; assay type: cell-based, human
Description: (§3) We observed a clear effect of the anle compounds on the autophagy pathway of the melanoma cells. […] Following addition of anle138c, the effect was seen later with levels of 8% at 24 hr and 78% after 96 hr.
(§4) Autophagy. WM983-B and SK-MEL-5 cells that for 24 or 48 hr were treated with anle138 or had received DMSO only were fixed for 20 min with 3.7% PFA, permeabilized, blocked, and probed with an anti-LC3B [clone 2G6] antibody (nanoTools Antikörpertechnik GmbH & Co. KG, Teningen, Germany), followed by a donkey anti-mouse Alexa-488 secondary antibody and Draq5 DNA counterstain. Confocal image stacks were obtained with a 63×NA 1.2 objective on a Zeiss LSM 510 Meta confocal microscope.

SK-MEL-5 melanoma cells [6] = experiment: Autophagy: LC3 immunofluorescence; assay type: cell-based, human; conditions: compared with WM983-B cells
Description: as §3, §4

WM983-B melanoma cells [7] = experiment: Cell morphology (phase-contrast); assay type: cell-based, human; conditions: increasing doses, serum-free medium; time- and dose-dependent
From the text: as §1, §2
(§5) Cell morphology. Phase-contrast or DIC images of the melanoma cells that had been treated for various times with anle138b or anle138c, or had received DMSO only were captured with a 10×NA 0.6 objective on a Zeiss Axiovert 100 microscope with a Hamamatsu Orca charge-coupled device (CCD) camera. At least four images, at random areas per culture dish, were recorded for each time point.

SK-MEL-5 melanoma cells [8] = experiment: Cell morphology (phase-contrast); assay type: cell-based, human; conditions: increasing doses, serum-free medium; time- and dose-dependent
From the text: as §1, §2, §5

WM1158 melanoma cells [9] = experiment: Cell morphology (phase-contrast); assay type: cell-based, human; conditions: 10 μM, up to 96 hr, replenishment at 48 hr
From the text: as §1, §2, §5

Structure (SMILES)	cytotoxicity at 10 µM [1] [%]	also measured
Brc1cccc(-c2c[nH]c(-c3ccc4c(c3)OCO4)n2)c1	100	
Brc1cccc(-c2cc(-c3ccc4nccnc4c3)n[nH]2)c1	100	
CN(C)c1ccc(-c2cc(-c3cccc(F)c3)on2)cc1	50 to 90	
Oc1ccc(-c2noc(-c3cccc(F)c3)n2)cc1O	100	
Brc1cccc(-c2cc(-c3ccc4c(c3)OCCCO4)n[nH]2)c1	100	
Brc1cccc(-c2cc(-c3ccc4ccoc4c3)n[nH]2)c1	50 to 90	
Brc1cccc(-c2nc(-c3ccc4c(c3)OCCO4)co2)c1	100	
Oc1ccc(-c2cc(-c3cccc(Br)c3)[nH]n2)cc1O [anle138c]		cleaved caspase 3 (apoptosis) [2]: nor were they positive for cleaved caspase 3; binding to FBS (Binding to FBS): bind strongly; effect on WM983-B cells in initial screen [3]: significantly affected; proliferation (WM1158 melanoma cells [4]): reduced proliferation only after 48 hr; binding to α-synuclein monomers (α-synuclein monomers): Neither of these two compounds binds to α-synuclein monomers; cells with punctuate upregulation of LC3 (WM983-B melanoma cells [5]; 24 hr, cells still attached): 8%; cells with punctuate upregulation of LC3 (WM983-B melanoma cells [5]; 96 hr): 78%; levels of punctuate LC3 loci (SK-MEL-5 melanoma cells [6]): even higher levels; morphological changes (WM983-B melanoma cells [7]): major morphological changes; morphological changes (SK-MEL-5 melanoma cells [8]): major morphological changes; morphology (WM1158 melanoma cells [9]): did not show a significantly altered morphology
Nc1cccc(-c2ncc(-c3ccc(Cl)c(Cl)c3)o2)c1	100	
Fc1cccc(-c2cc(-c3ccc4c(c3)OCO4)n[nH]2)c1	< 20	
CN(C)c1ccc(-c2cc(-c3cccc(Br)c3)[nH]n2)cc1 [drawing 79]	100	
Brc1cccc(-c2cc(-c3ccc4ccccc4c3)n[nH]2)c1	20 to 50	
Oc1ccc(-c2cc(-c3cccc(Br)c3)[nH]n2)cc1O [drawing 77]	100	
CN(C)c1ccc(-c2cc(-c3cccc(Br)c3)no2)cc1	< 20	
CN1CCOc2cc(-c3cc(-c4cccc(Br)c4)[nH]n3)ccc21	100	
Brc1cccc(-c2cc(-c3ccc4c(c3)OCCO4)n[nH]2)c1	100	
CN(C)c1ccc(-c2cc(-c3cccc(Br)c3)[nH]n2)cc1 [anle253b, 5-(3-Bromophenyl)-3-(4-dimethylaminophenyl)-1H-pyrazole]		effect on WM983-B cells in initial screen [3]: significantly affected

Structure (SMILES)	cytotoxicity at 10 µM [1] [%]	also measured
CC1(C)CCc2cc(-c3cc(-c4cccc(Br)c4)[nH]n3)ccc2O1	100	
Oc1ccc(-c2cc(-c3cccc(F)c3)[nH]n2)cc1O	50 to 90	
FC1(F)Oc2ccc(-c3cc(-c4cccc(Br)c4)[nH]n3)cc2O1	20 to 50	
Oc1ccc(-c2cc(-c3cccc(F)c3)on2)cc1O	100	
Clc1cccc(-c2cc(-c3ccc4c(c3)OCO4)n[nH]2)c1	100	
Nc1ccc(-c2cc(-c3cccc(Cl)c3)[nH]n2)cc1	20 to 50	
Oc1cccc(-c2cc(-c3cccc(Cl)c3)[nH]n2)c1	50 to 90	
Clc1cc(Cl)cc(-c2nc(-c3ccc4c(c3)OCO4)no2)c1	< 20	
FCCn1nc(-c2cccc(Br)c2)cc1-c1ccc2c(c1)OCO2	100	
Cc1ccc(Br)cc1-c1nc(-c2cccc(OC(F)(F)F)c2)no1	50 to 90	
Cn1nc(-c2ccc3c(c2)OCO3)cc1-c1cccc(Br)c1	50 to 90	
Brc1cccc(-c2nc(-c3ccc4c(c3)OCO4)no2)c1	< 20	
COc1ccc(-c2noc(-c3cccc(Cl)c3)n2)cc1	20 to 50	
Clc1cccc(-c2cc(-c3ccc4c(c3)OCCO4)n[nH]2)c1	100	
Cn1ccc2cc(-c3cc(-c4cccc(Br)c4)[nH]n3)ccc21	20 to 50	
COc1ccc(-c2cc(-c3cccc(F)c3)on2)cc1OC	100	
COc1cccc(-c2c[nH]c(-c3cccc(Br)c3)n2)c1	100	
